Measurements reported in ChEMBL document CHEMBL1201861, “Genomics of Drug Sensitity in Cancer screening data, Wellcome Trust Sanger Institute”.

tested on: TGBC1TKB; assay: cells; format: functional, cell-based, Homo sapiens; conditions: Homo sapiens, TGBC1TKB;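 note: growth inhibition of TGBC1TKB cells, read out by a cell viability assay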
Description: SANGER: Inhibition of human TGBC1TKB cell growth in a cell viability assay.

Question: With `NC(=O)Nc1cc(-c2cccc(F)c2)sc1C(=O)N[C@H]1CCCNC1` [AZD-7762] as the compound, how does the IC50 read?
Answer: 1920 nM

tested on: OCI-AML2; assay: cells; format: functional, cell-based, Homo sapiens; conditions: Homo sapiens, OCI-AML2;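 note: growth inhibition of OCI-AML2 cells, read out with a cell viability assay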
Description: SANGER: Inhibition of human OCI-AML2 cell growth in a cell viability assay.

Question: How did the IC50 turn out when `NC(=O)Nc1cc(-c2cccc(F)c2)sc1C(=O)N[C@H]1CCCNC1` [AZD-7762] was run?
Answer: 1270 nM

tested on: PSN1; assay: cells; format: functional, cell-based, Homo sapiens; conditions: Homo sapiens, PSN1;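 note: suppression of growth of human PSN1 cells, read out by a cell viability assay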
Description: SANGER: Inhibition of human PSN1 cell growth in a cell viability assay.

Question: For `NC(=O)Nc1cc(-c2cccc(F)c2)sc1C(=O)N[C@H]1CCCNC1` [AZD-7762], which IC50 is on record?
Answer: 591 nM

tested on: NOS-1; assay: cells; format: functional, cell-based, Homo sapiens; conditions: Homo sapiens, NOS-1;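 note: growth inhibition of the human NOS-1 cell line, read out with a cell viability assay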
Description: SANGER: Inhibition of human NOS-1 cell growth in a cell viability assay.

Question: `NC(=O)Nc1cc(-c2cccc(F)c2)sc1C(=O)N[C@H]1CCCNC1` [AZD-7762] was tested. Which IC50 did it give?
Answer: 150 nM

tested on: NCI-H526; assay: cells; format: functional, cell-based, Homo sapiens; conditions: Homo sapiens, NCI-H526;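 note: growth inhibition of the human NCI-H526 cell line, measured by a cell viability assay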
Description: SANGER: Inhibition of human NCI-H526 cell growth in a cell viability assay.

Question: For `NC(=O)Nc1cc(-c2cccc(F)c2)sc1C(=O)N[C@H]1CCCNC1` [AZD-7762], which IC50 is on record?
Answer: 1540 nM

tested on: SNU1; assay: cells; format: functional, cell-based, Homo sapiens; conditions: Homo sapiens, SNU1;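 note: growth inhibition of human NCI-SNU-1 cells, measured with a cell viability assay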
Description: SANGER: Inhibition of human NCI-SNU-1 cell growth in a cell viability assay.

Question: For `NC(=O)Nc1cc(-c2cccc(F)c2)sc1C(=O)N[C@H]1CCCNC1` [AZD-7762], which IC50 is on record?
Answer: 271 nM

tested on: BT-474; assay: cells; format: functional, cell-based, Homo sapiens; conditions: Homo sapiens, BT-474
Description: SANGER: Inhibition of human BT-474 cell growth in a cell viability assay.

Question: With `NC(=O)Nc1cc(-c2cccc(F)c2)sc1C(=O)N[C@H]1CCCNC1` [AZD-7762] as the compound, how does the IC50 read?
Answer: > 2000 nM

tested on: KM12; assay: cells; format: functional, cell-based, Homo sapiens; conditions: Homo sapiens, KM12;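 note: KM12 cell growth inhibition, read out with a cell viability assay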
Description: SANGER: Inhibition of human KM12 cell growth in a cell viability assay.

Question: With `NC(=O)Nc1cc(-c2cccc(F)c2)sc1C(=O)N[C@H]1CCCNC1` [AZD-7762] as the compound, how does the IC50 read?
Answer: 51.6 nM

tested on: EW-3; assay: cells; format: functional, cell-based, Homo sapiens; conditions: Homo sapiens, EW-3;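 note: cell viability assay read-out, IC50 reflects inhibition of growth of the EW-3 cells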
Description: SANGER: Inhibition of human EW-3 cell growth in a cell viability assay.

Question: With `NC(=O)Nc1cc(-c2cccc(F)c2)sc1C(=O)N[C@H]1CCCNC1` [AZD-7762] as the compound, how does the IC50 read?
Answer: 736 nM

tested on: LC-2-ad; assay: cells; format: functional, cell-based, Homo sapiens; conditions: Homo sapiens, LC-2-ad;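 note: growth inhibition of human LC-2-ad cells, read out with a cell viability assay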
Description: SANGER: Inhibition of human LC-2-ad cell growth in a cell viability assay.

Question: Which IC50 does the source give for `NC(=O)Nc1cc(-c2cccc(F)c2)sc1C(=O)N[C@H]1CCCNC1` [AZD-7762] here?
Answer: 565 nM

tested on: NCI-H446; assay: cells; format: functional, cell-based, Homo sapiens; conditions: Homo sapiens, NCI-H446;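 note: growth inhibition of NCI-H446 cells determined by a cell viability assay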
Description: SANGER: Inhibition of human NCI-H446 cell growth in a cell viability assay.

Question: Which IC50 does the source give for `NC(=O)Nc1cc(-c2cccc(F)c2)sc1C(=O)N[C@H]1CCCNC1` [AZD-7762] here?
Answer: 748 nM

tested on: CGTH-W-1; assay: cells; format: functional, cell-based, Homo sapiens; conditions: Homo sapiens, CGTH-W-1;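 note: growth inhibition of human CGTH-W-1 cells measured by cell viability assay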
Description: SANGER: Inhibition of human CGTH-W-1 cell growth in a cell viability assay.

Question: With `NC(=O)Nc1cc(-c2cccc(F)c2)sc1C(=O)N[C@H]1CCCNC1` [AZD-7762] as the compound, how does the IC50 read?
Answer: 14.2 nM

tested on: HT; assay: cells; format: functional, cell-based, Homo sapiens; conditions: Homo sapiens, HT
Description: SANGER: Inhibition of human HT cell growth in a cell viability assay.

Question: With `NC(=O)Nc1cc(-c2cccc(F)c2)sc1C(=O)N[C@H]1CCCNC1` [AZD-7762] as the compound, how does the IC50 read?
Answer: 1870 nM

tested on: U-266; assay: cells; format: functional, cell-based, Homo sapiens; conditions: Homo sapiens, U-266
Description: SANGER: Inhibition of human U-266 cell growth in a cell viability assay.

Question: With `NC(=O)Nc1cc(-c2cccc(F)c2)sc1C(=O)N[C@H]1CCCNC1` [AZD-7762] as the compound, how does the IC50 read?
Answer: 763 nM

tested on: KNS-81-FD; assay: cells; format: functional, cell-based, Homo sapiens; conditions: Homo sapiens, KNS-81-FD;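 note: growth inhibition of KNS-81-FD cells, read out with a cell viability assay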
Description: SANGER: Inhibition of human KNS-81-FD cell growth in a cell viability assay.

Question: Which IC50 does the source give for `NC(=O)Nc1cc(-c2cccc(F)c2)sc1C(=O)N[C@H]1CCCNC1` [AZD-7762] here?
Answer: > 2000 nM

tested on: TE-11; assay: cells; format: functional, cell-based; conditions: Homo sapiens;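 note: growth inhibition of human TE-11 cells, read out by a cell viability assay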
Description: SANGER: Inhibition of human TE-11 cell growth in a cell viability assay.

Question: For `NC(=O)Nc1cc(-c2cccc(F)c2)sc1C(=O)N[C@H]1CCCNC1` [AZD-7762], which IC50 is on record?
Answer: 453 nM

tested on: NCI-H1092; assay: cells; format: functional, cell-based, Homo sapiens; conditions: Homo sapiens, NCI-H1092;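 note: cell growth inhibition measured with a cell viability assay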
Description: SANGER: Inhibition of human NCI-H1092 cell growth in a cell viability assay.

Question: For `NC(=O)Nc1cc(-c2cccc(F)c2)sc1C(=O)N[C@H]1CCCNC1` [AZD-7762], which IC50 is on record?
Answer: > 2000 nM

tested on: COLO-824; assay: cells; format: functional, cell-based, Homo sapiens; conditions: Homo sapiens, COLO-824
Description: SANGER: Inhibition of human COLO-824 cell growth in a cell viability assay.

Question: With `NC(=O)Nc1cc(-c2cccc(F)c2)sc1C(=O)N[C@H]1CCCNC1` [AZD-7762] as the compound, how does the IC50 read?
Answer: > 2000 nM

tested on: KU812 cell line; assay: cells; format: functional, cell-based, Homo sapiens; conditions: Homo sapiens, KU812;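 note: growth inhibition of KU812 cells, read out with a cell viability assay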
Description: SANGER: Inhibition of human KU812 cell growth in a cell viability assay.

Question: `NC(=O)Nc1cc(-c2cccc(F)c2)sc1C(=O)N[C@H]1CCCNC1` [AZD-7762] was tested. Which IC50 did it give?
Answer: 168 nM

tested on: LU-134-A; assay: cells; format: functional, cell-based, Homo sapiens; conditions: Homo sapiens, LU-134-A
Description: SANGER: Inhibition of human LU-134-A cell growth in a cell viability assay.

Question: Which IC50 does the source give for `NC(=O)Nc1cc(-c2cccc(F)c2)sc1C(=O)N[C@H]1CCCNC1` [AZD-7762] here?
Answer: 657 nM

tested on: ES1; assay: cells; format: functional, cell-based, Homo sapiens; conditions: Homo sapiens, ES1;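 note: growth inhibition of ES1 cells, read out with a cell viability assay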
Description: SANGER: Inhibition of human ES1 cell growth in a cell viability assay.

Question: Which IC50 does the source give for `NC(=O)Nc1cc(-c2cccc(F)c2)sc1C(=O)N[C@H]1CCCNC1` [AZD-7762] here?
Answer: 71.5 nM

tested on: NCI-H1581; assay: cells; format: functional, cell-based, Homo sapiens; conditions: Homo sapiens, NCI-H1581;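 note: cell growth inhibition read out by a viability assay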
Description: SANGER: Inhibition of human NCI-H1581 cell growth in a cell viability assay.

Question: `NC(=O)Nc1cc(-c2cccc(F)c2)sc1C(=O)N[C@H]1CCCNC1` [AZD-7762] was tested. Which IC50 did it give?
Answer: > 2000 nM

tested on: NCI-H1770; assay: cells; format: functional, cell-based, Homo sapiens; conditions: Homo sapiens, NCI-H1770;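 note: growth inhibition of NCI-H1770 cells determined with a viability readout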
Description: SANGER: Inhibition of human NCI-H1770 cell growth in a cell viability assay.

Question: For `NC(=O)Nc1cc(-c2cccc(F)c2)sc1C(=O)N[C@H]1CCCNC1` [AZD-7762], which IC50 is on record?
Answer: > 2000 nM

tested on: JVM-3; assay: cells; format: functional, cell-based, Homo sapiens; conditions: Homo sapiens, JVM-3;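 note: growth inhibition of human JVM-3 cells, read out with a cell viability assay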
Description: SANGER: Inhibition of human JVM-3 cell growth in a cell viability assay.

Question: `NC(=O)Nc1cc(-c2cccc(F)c2)sc1C(=O)N[C@H]1CCCNC1` [AZD-7762] was tested. Which IC50 did it give?
Answer: 230 nM

tested on: ES3; assay: cells; format: functional, cell-based, Homo sapiens; conditions: Homo sapiens, ES3;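 note: growth inhibition of ES3 cells, read out with a cell viability assay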
Description: SANGER: Inhibition of human ES3 cell growth in a cell viability assay.

Question: Which IC50 does the source give for `NC(=O)Nc1cc(-c2cccc(F)c2)sc1C(=O)N[C@H]1CCCNC1` [AZD-7762] here?
Answer: 102 nM

tested on: TE-5; assay: cells; format: functional, cell-based, Homo sapiens; conditions: Homo sapiens, TE-5;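 note: inhibition of cell growth, read out by a cell viability assay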
Description: SANGER: Inhibition of human TE-5 cell growth in a cell viability assay.

Question: `NC(=O)Nc1cc(-c2cccc(F)c2)sc1C(=O)N[C@H]1CCCNC1` [AZD-7762] was tested. Which IC50 did it give?
Answer: 1420 nM

tested on: EW-1; assay: cells; format: functional, cell-based, Homo sapiens; conditions: Homo sapiens, EW-1;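 note: growth inhibition of the human EW-1 cell line, read out by a cell viability assay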
Description: SANGER: Inhibition of human EW-1 cell growth in a cell viability assay.

Question: Which IC50 does the source give for `NC(=O)Nc1cc(-c2cccc(F)c2)sc1C(=O)N[C@H]1CCCNC1` [AZD-7762] here?
Answer: 189 nM

tested on: HCE-4; assay: cells; format: functional, cell-based; conditions: Homo sapiens;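 note: cell viability assay measuring inhibition of growth in the human HCE-4 cell line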
Description: SANGER: Inhibition of human HCE-4 cell growth in a cell viability assay.

Question: For `NC(=O)Nc1cc(-c2cccc(F)c2)sc1C(=O)N[C@H]1CCCNC1` [AZD-7762], which IC50 is on record?
Answer: 970 nM

tested on: UACC-257; assay: cells; format: functional, cell-based, Homo sapiens; conditions: Homo sapiens, UACC-257
Description: SANGER: Inhibition of human UACC-257 cell growth in a cell viability assay.

Question: How did the IC50 turn out when `NC(=O)Nc1cc(-c2cccc(F)c2)sc1C(=O)N[C@H]1CCCNC1` [AZD-7762] was run?
Answer: > 2000 nM

tested on: BB65-RCC; assay: cells; format: functional, cell-based, Homo sapiens; conditions: Homo sapiens, BB65-RCC;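 note: growth inhibition of the cell line, measured with a cell viability assay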
Description: SANGER: Inhibition of human BB65-RCC cell growth in a cell viability assay.

Question: For `NC(=O)Nc1cc(-c2cccc(F)c2)sc1C(=O)N[C@H]1CCCNC1` [AZD-7762], which IC50 is on record?
Answer: 271 nM

tested on: RKO; assay: cells; format: functional, cell-based, Homo sapiens; conditions: Homo sapiens, RKO;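 note: growth inhibition of human RKO cells, read out with a cell viability assay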
Description: SANGER: Inhibition of human RKO cell growth in a cell viability assay.

Question: How did the IC50 turn out when `NC(=O)Nc1cc(-c2cccc(F)c2)sc1C(=O)N[C@H]1CCCNC1` [AZD-7762] was run?
Answer: 520 nM

tested on: KP-N-YS; assay: cells; format: functional, cell-based, Homo sapiens; conditions: Homo sapiens, KP-N-YS;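 note: cell viability assay measuring inhibition of cell line growth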
Description: SANGER: Inhibition of human KP-N-YS cell growth in a cell viability assay.

Question: `NC(=O)Nc1cc(-c2cccc(F)c2)sc1C(=O)N[C@H]1CCCNC1` [AZD-7762] was tested. Which IC50 did it give?
Answer: 584 nM

tested on: MN-60; assay: cells; format: functional, cell-based, Homo sapiens; conditions: Homo sapiens, MN-60;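 note: growth inhibition of the MN-60 cell line, determined with a cell viability assay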
Description: SANGER: Inhibition of human MN-60 cell growth in a cell viability assay.

Question: Which IC50 does the source give for `NC(=O)Nc1cc(-c2cccc(F)c2)sc1C(=O)N[C@H]1CCCNC1` [AZD-7762] here?
Answer: 721 nM

tested on: OMC-1; assay: cells; format: functional, cell-based, Homo sapiens; conditions: Homo sapiens, OMC-1;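 note: growth inhibition of the OMC-1 cell line, measured by a cell viability assay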
Description: SANGER: Inhibition of human OMC-1 cell growth in a cell viability assay.

Question: Which IC50 does the source give for `NC(=O)Nc1cc(-c2cccc(F)c2)sc1C(=O)N[C@H]1CCCNC1` [AZD-7762] here?
Answer: 575 nM

tested on: KG-1; assay: cells; format: functional, cell-based, Homo sapiens; conditions: Homo sapiens, KG-1;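 note: growth inhibition of KG-1 cells, read out by a cell viability assay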
Description: SANGER: Inhibition of human KG-1 cell growth in a cell viability assay.

Question: How did the IC50 turn out when `NC(=O)Nc1cc(-c2cccc(F)c2)sc1C(=O)N[C@H]1CCCNC1` [AZD-7762] was run?
Answer: 845 nM

tested on: D-247MG; assay: cells; format: functional, cell-based; conditions: Homo sapiens
Description: SANGER: Inhibition of human D-247MG cell growth in a cell viability assay.

Question: How did the IC50 turn out when `NC(=O)Nc1cc(-c2cccc(F)c2)sc1C(=O)N[C@H]1CCCNC1` [AZD-7762] was run?
Answer: > 2000 nM

tested on: J-RT3-T3-5; assay: cells; format: functional, cell-based, Homo sapiens; conditions: Homo sapiens, J-RT3-T3-5;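 note: cell viability assay measuring growth inhibition of human J-RT3-T3-5 cells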
Description: SANGER: Inhibition of human J-RT3-T3-5 cell growth in a cell viability assay.

Question: For `NC(=O)Nc1cc(-c2cccc(F)c2)sc1C(=O)N[C@H]1CCCNC1` [AZD-7762], which IC50 is on record?
Answer: 267 nM

tested on: MLMA; assay: cells; format: functional, cell-based, Homo sapiens; conditions: Homo sapiens, MLMA;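 note: growth inhibition of MLMA cells (human), determined through a cell viability readout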
Description: SANGER: Inhibition of human MLMA cell growth in a cell viability assay.

Question: Which IC50 does the source give for `NC(=O)Nc1cc(-c2cccc(F)c2)sc1C(=O)N[C@H]1CCCNC1` [AZD-7762] here?
Answer: 28.5 nM

tested on: KARPAS-299; assay: cells; format: functional, cell-based, Homo sapiens; conditions: Homo sapiens, KARPAS-299
Description: SANGER: Inhibition of human KARPAS-299 cell growth in a cell viability assay.

Question: Which IC50 does the source give for `NC(=O)Nc1cc(-c2cccc(F)c2)sc1C(=O)N[C@H]1CCCNC1` [AZD-7762] here?
Answer: > 2000 nM

tested on: MZ1-PC; assay: cells; format: functional, cell-based, Homo sapiens; conditions: Homo sapiens, MZ1-PC;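 note: cell viability assay measuring growth inhibition of human MZ1-PC cells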
Description: SANGER: Inhibition of human MZ1-PC cell growth in a cell viability assay.

Question: `NC(=O)Nc1cc(-c2cccc(F)c2)sc1C(=O)N[C@H]1CCCNC1` [AZD-7762] was tested. Which IC50 did it give?
Answer: > 2000 nM

tested on: KY821; assay: cells; format: functional, cell-based, Homo sapiens; conditions: Homo sapiens, KY821;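 note: growth inhibition of human KY821 cells, read out by a cell viability assay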
Description: SANGER: Inhibition of human KY821 cell growth in a cell viability assay.

Question: With `NC(=O)Nc1cc(-c2cccc(F)c2)sc1C(=O)N[C@H]1CCCNC1` [AZD-7762] as the compound, how does the IC50 read?
Answer: 214 nM

tested on: KALS-1; assay: cells; format: functional, cell-based, Homo sapiens; conditions: Homo sapiens, KALS-1; read-out: IC50;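 note: growth inhibition of KALS-1 cells, determined with a cell viability assay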
Description: SANGER: Inhibition of human KALS-1 cell growth in a cell viability assay.

Question: With `NC(=O)Nc1cc(-c2cccc(F)c2)sc1C(=O)N[C@H]1CCCNC1` [AZD-7762] as the compound, how does the IC50 read?
Answer: 326 nM

tested on: SK-MEL-2; assay: cells; format: functional, cell-based, Homo sapiens; conditions: Homo sapiens, SK-MEL-2;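 note: growth inhibition of human SK-MEL-2 cells measured with a cell viability assay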
Description: SANGER: Inhibition of human SK-MEL-2 cell growth in a cell viability assay.

Question: How did the IC50 turn out when `NC(=O)Nc1cc(-c2cccc(F)c2)sc1C(=O)N[C@H]1CCCNC1` [AZD-7762] was run?
Answer: 100 nM

tested on: SW 962; assay: cells; format: functional, cell-based, Homo sapiens; conditions: Homo sapiens, SW 962;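 note: growth inhibition of human SW962 cells, read out by a cell viability assay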
Description: SANGER: Inhibition of human SW962 cell growth in a cell viability assay.

Question: With `NC(=O)Nc1cc(-c2cccc(F)c2)sc1C(=O)N[C@H]1CCCNC1` [AZD-7762] as the compound, how does the IC50 read?
Answer: > 2000 nM

tested on: RS4-11; assay: cells; format: functional, cell-based, Homo sapiens; conditions: Homo sapiens, RS4-11;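 note: growth inhibition of RS4-11 cells, read out by a cell viability assay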
Description: SANGER: Inhibition of human RS4-11 cell growth in a cell viability assay.

Question: For `NC(=O)Nc1cc(-c2cccc(F)c2)sc1C(=O)N[C@H]1CCCNC1` [AZD-7762], which IC50 is on record?
Answer: 203 nM

tested on: LS-411N; assay: cells; format: functional, cell-based, Homo sapiens; conditions: Homo sapiens, LS-411N

Question: How did the IC50 turn out when `NC(=O)Nc1cc(-c2cccc(F)c2)sc1C(=O)N[C@H]1CCCNC1` [AZD-7762] was run?
Answer: 376 nM

tested on: D-263MG; assay: cells; format: functional, cell-based, Homo sapiens; conditions: Homo sapiens, D-263MG
Description: SANGER: Inhibition of human D-263MG cell growth in a cell viability assay.

Question: How did the IC50 turn out when `NC(=O)Nc1cc(-c2cccc(F)c2)sc1C(=O)N[C@H]1CCCNC1` [AZD-7762] was run?
Answer: 909 nM

tested on: DSH1; assay: cells; format: functional, cell-based; conditions: Homo sapiens;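 note: growth inhibition of human DSH1 cells, measured with a cell viability readout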
Description: SANGER: Inhibition of human DSH1 cell growth in a cell viability assay.

Question: Which IC50 does the source give for `NC(=O)Nc1cc(-c2cccc(F)c2)sc1C(=O)N[C@H]1CCCNC1` [AZD-7762] here?
Answer: 1690 nM

tested on: NCI-H1648; assay: cells; format: functional, cell-based, Homo sapiens; conditions: Homo sapiens, NCI-H1648;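 note: cell viability assay measuring inhibition of NCI-H1648 cell growth, from the Sanger screening data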
Description: SANGER: Inhibition of human NCI-H1648 cell growth in a cell viability assay.

Question: Which IC50 does the source give for `NC(=O)Nc1cc(-c2cccc(F)c2)sc1C(=O)N[C@H]1CCCNC1` [AZD-7762] here?
Answer: > 2000 nM
